The nature of test [1]: Competitive inhibition of Escherichia coli dUTPase.
For test [2], the target named is T1, Deoxyuridine 5'-triphosphate nucleotidohydrolase, mitochondrial (Homo sapiens, UniProt P33316).
T1 sequence (P33316 whole entry): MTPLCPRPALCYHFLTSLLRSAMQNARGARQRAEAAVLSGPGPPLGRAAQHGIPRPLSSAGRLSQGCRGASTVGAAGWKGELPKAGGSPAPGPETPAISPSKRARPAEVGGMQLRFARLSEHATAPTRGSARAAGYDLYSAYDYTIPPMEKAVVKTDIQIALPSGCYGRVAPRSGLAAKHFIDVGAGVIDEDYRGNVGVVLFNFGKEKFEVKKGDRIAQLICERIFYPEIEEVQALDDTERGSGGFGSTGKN
As to the kind of experiment: Inhibition of human dUTPase using [5-3H]dUTP as substrate after 15 mins by HPLC analysis.

Test [3] in a line: Antiproliferative activity against human HeLaS3 cells after 72 hrs by crystal violet assay. It counts as functional, cell-based. The settings on record: HeLa S3, 72 h.
Test [4] can be described thus: Potentiation of antiproliferative activity of FdUrd against human HeLaS3 cells assessed as reduction in FdUrd T/C value by half after 24 hrs by crystal violet assay. It counts as functional, cell-based. Conditions: HeLa S3, 24 h.
In test [5] the target is T1, Deoxyuridine 5'-triphosphate nucleotidohydrolase, mitochondrial. As to the kind of experiment: Inhibition of human dUTPase.

Some results are limits rather than exact numbers.

In general, Ki refers to the dissociation constant of the complex between target and ligand, obtained from inhibition or displacement. Higher therefore signals weaker binding. As usually defined, the IC50 is the concentration needed to halve the response being measured. Consider `O=c1ccn([C@H]2C[C@H](O)[C@@H](COP(=O)(O)NP(=O)(O)OP(=O)(O)O)O2)c(=O)[nH]1`, for which, in test [1], the Ki was 5000 nM. This compound also displayed a half-maximal inhibitory concentration (IC50) in test [2] of 15000 nM.

Usually EC50 stands for the concentration that produces a half-maximal response. For `O=c1ccn(CCCS(=O)(=O)N2CCC[C@@H]2C(O)(c2ccccc2)c2ccccc2)c(=O)[nH]1`, in test [2], the midpoint of inhibition, the IC50, lay at 320 nM. Besides, the EC50 in test [3] was more than 100000 nM; in test [4] it was 300 nM.

As to `O=C(CCCn1ccc(=O)[nH]c1=O)N1CCC[C@H]1C(O)(c1ccccc1)c1ccccc1`, the IC50 in test [2] is 290 nM. The values for the EC50 in test [3] and in test [4] were more than 100000 nM and 270 nM, respectively.

For the compound `O=c1ccn([C@H]2C[C@H](O)[C@@H](COP(=O)(O)CP(=O)(O)OP(=O)(O)OCc3ccccc3)O2)c(=O)[nH]1`, the Ki in test [5] stood at 300 nM.

Compound `CC(C)(C)NC(=O)CCCn1ccc(=O)[nH]c1=O` had an IC50 in test [2] of 97000 nM.

Regarding `CC(C)(C)CC(C)(C)NC(=O)CCn1ccc(=O)[nH]c1=O`, in test [2], the IC50 was more than 30000 nM.

Consider `CCC(CC)(CC)NC(=O)CCn1ccc(=O)[nH]c1=O`, for which the IC50 in test [2] worked out at 22000 nM. In other words, the double-digit micromolar range.

In the case of `CC(C)(C)NC(=O)CCn1ccc(=O)[nH]c1=O`, the IC50 in test [2] was more than 30000 nM.

`O=C(CCn1ccc(=O)[nH]c1=O)N(Cc1ccccc1)Cc1ccccc1` displayed an IC50 in test [2] of more than 30000 nM.

Consider `O=C(CCn1ccc(=O)[nH]c1=O)NC(c1ccccc1)c1ccccc1`, for which the IC50 in test [2] was more than 30000 nM.

In the case of `O=C(CCn1ccc(=O)[nH]c1=O)NCC(c1ccccc1)c1ccccc1`, in test [2], the 50% inhibitory concentration (IC50) was more than 30000 nM.

In test [2], `O=C(CCn1ccc(=O)[nH]c1=O)NCCC(c1ccccc1)c1ccccc1` came in with an IC50 of more than 30000 nM.

The compound `O=C(CCn1ccc(=O)[nH]c1=O)N1CCC(Cc2ccccc2)CC1` showed an IC50 in test [2] of more than 30000 nM.

As for `CC(C)(NC(=O)CCn1ccc(=O)[nH]c1=O)C(O)(c1ccccc1)c1ccccc1`, half-maximal inhibition in test [2] (IC50) was put at 7300 nM.

In test [2], `O=C(CCCn1ccc(=O)[nH]c1=O)Nc1ccccc1` showed an IC50 of more than 30000 nM.

The compound `CC(C)(C)CC(C)(C)NC(=O)CCCn1ccc(=O)[nH]c1=O` returned an IC50 in test [2] of 30000 nM.

In test [2], `O=C(CCCn1ccc(=O)[nH]c1=O)NCc1ccccc1` displayed an IC50 of more than 30000 nM.

For the compound `CC(C)(Cc1ccccc1)NC(=O)CCCn1ccc(=O)[nH]c1=O`, the IC50 in test [2] is more than 30000 nM.

Compound `CC(C)(NC(=O)CCCn1ccc(=O)[nH]c1=O)c1ccccc1` yielded an IC50 in test [2] of more than 30000 nM.

In test [2], `CCC(CC)(CC)NC(=O)CCCn1ccc(=O)[nH]c1=O` yielded a concentration for half-maximal inhibition (IC50) of more than 30000 nM.

For `O=C(CCCn1ccc(=O)[nH]c1=O)NC(c1ccccc1)c1ccccc1`, the concentration for half-maximal inhibition (IC50) in test [2] was more than 30000 nM.

`O=C(CCCn1ccc(=O)[nH]c1=O)NCC(c1ccccc1)c1ccccc1`: half-maximal inhibition in test [2] (IC50) was put at 16000 nM.

With `CC(C)(NC(=O)CCCn1ccc(=O)[nH]c1=O)C(O)(c1ccccc1)c1ccccc1`, in test [2], half-maximal inhibition (IC50) required 2500 nM. Besides, the EC50 was more than 100000 nM in test [3] and 3000 nM in test [4].

In test [2], `CN(CC(c1ccccc1)c1ccccc1)C(=O)CCCn1ccc(=O)[nH]c1=O` had an IC50 of 1300 nM. Also, the figures for the EC50 in test [3] and in test [4] were more than 100000 nM and 1200 nM, respectively.

For the compound `CC(C)(Cc1ccc2ccccc2c1)NC(=O)CCCn1ccc(=O)[nH]c1=O`, in test [2], the IC50 is more than 30000 nM.

Regarding `CC(C)(CCc1ccccc1)NC(=O)CCCn1ccc(=O)[nH]c1=O`, in test [2], 21000 nM corresponded to half-maximal inhibition (IC50).

In test [2], `CC(C)(CO)NC(=O)CCCn1ccc(=O)[nH]c1=O` had an IC50 of more than 30000 nM.

As for `CN(CC(O)(c1ccccc1)c1ccccc1)C(=O)CCCn1ccc(=O)[nH]c1=O`, inhibition in test [2] was half-maximal at 1100 nM (IC50). That is a single-digit micromolar value.

In turn, `O=C(CCCn1ccc(=O)[nH]c1=O)N1CCC[C@@H]1C(O)(c1ccccc1)c1ccccc1` had a concentration for half-maximal inhibition (IC50) in test [2] of 10000 nM.

Turning to `O=C(CCCn1ccc(=O)[nH]c1=O)N1CCC[C@H]1C(O)(c1cccc(F)c1)c1cccc(F)c1`, the IC50 in test [2] came to 350 nM.

In the case of `O=C(CCCn1ccc(=O)[nH]c1=O)N1CCC[C@H]1C(O)(c1ccc(F)cc1)c1ccc(F)cc1`, inhibition in test [2] was half-maximal at 600 nM (IC50).

The compound `O=C(CCCn1ccc(=O)[nH]c1=O)N1CCC[C@H]1C(O)(c1cccc(Cl)c1)c1cccc(Cl)c1` displayed an IC50 in test [2] of 580 nM.

As for `O=C(CCCn1ccc(=O)[nH]c1=O)N1CCC[C@H]1C(O)(c1ccc(Cl)cc1)c1ccc(Cl)cc1`, the IC50 in test [2] is more than 1000 nM.

In turn, `COc1ccccc1C(O)(c1ccccc1OC)[C@@H]1CCCN1C(=O)CCCn1ccc(=O)[nH]c1=O` registered an IC50 in test [2] of more than 1000 nM.

As to `COc1cccc(C(O)(c2cccc(OC)c2)[C@@H]2CCCN2C(=O)CCCn2ccc(=O)[nH]c2=O)c1`, the IC50 in test [2] is more than 1000 nM.

Take `COc1ccc(C(O)(c2ccc(OC)cc2)[C@@H]2CCCN2C(=O)CCCn2ccc(=O)[nH]c2=O)cc1`: the IC50 in test [2] is more than 1000 nM.

Compound `O=C(CCCn1ccc(=O)[nH]c1=O)N1CCC[C@H]1C(O)(c1cccc(-c2ccsc2)c1)c1cccc(-c2ccsc2)c1` returned a half-maximal inhibitory concentration (IC50) in test [2] of 230 nM.

The compound `O=C(CCCn1ccc(=O)[nH]c1=O)N1CCC[C@H]1C(c1ccccc1)c1ccccc1` displayed an IC50 in test [2] of 150 nM.

In test [2], `O=C(CCn1ccc(=O)[nH]c1=O)N1CCC[C@H]1C(O)(c1ccccc1)c1ccccc1` showed an IC50 of more than 1000 nM.

`O=c1ccn(CCCS(=O)(=O)N2CCC[C@H]2C(O)(c2ccccc2)c2ccccc2)c(=O)[nH]1` showed an IC50 in test [2] of 9400 nM.

The compound `O=c1ccn(CCCS(=O)(=O)N2CCC[C@@H]2C(O)(c2cccc(F)c2)c2cccc(F)c2)c(=O)[nH]1` registered a half-inhibitory concentration (IC50) in test [2] of 280 nM.

Turning to `O=c1ccn(CCCS(=O)(=O)N2CCC[C@@H]2C(O)(c2ccc(F)cc2)c2ccc(F)cc2)c(=O)[nH]1`, it took 310 nM to reach half-maximal inhibition in test [2] (IC50).

For `COc1ccccc1C(O)(c1ccccc1OC)[C@H]1CCCN1S(=O)(=O)CCCn1ccc(=O)[nH]c1=O`, the IC50 in test [2] is more than 1000 nM.

The compound `COc1cccc(C(O)(c2cccc(OC)c2)[C@H]2CCCN2S(=O)(=O)CCCn2ccc(=O)[nH]c2=O)c1` registered an IC50 in test [2] of more than 1000 nM.

These data come from ChEMBL document CHEMBL2046335, “Synthesis and discovery of N-carbonylpyrrolidine- or N-sulfonylpyrrolidine-containing uracil derivatives as potent human deoxyuridine triphosphatase inhibitors” (J Med Chem, 2012).
